Assay results taken from patent US9518038B2, “Condensation product of theanine derivative and carboxylic acid coumarin derivative, its intermediate, preparation method and use thereof” (SHANDONG YINGDONG YINGHAO BIOTECHNOLOGY, INC., priority 2012, dated 2016).
Where two headings read alike, the source gives them in different places. Marks after values point to notes of the source that are not given here.

Legend:
[1] = test system: mouse melanoma cells B16; test: MTT growth inhibition, B16 cells; format: cell-based; settings: Mus musculus, 72 h after treatment, read-out: Drug concentration (IC50) at which 50% cancer cells survived
Description: Cell lines and cell culture: human lung cancer cells A549 and H460, human breast cancer cells MCF-7 and MDA-MB-231, human gastric cancer cells BGC-823, human prostate cancer cells PC-3, human chronic leukemia cells K562, human lymphoma cells U937, human liver cancer cells SMMC7721 and HepG2, human colon cancer cells HT29, human pancreatic cancer cells PANC-1 and BxPC3, human cervical cancer Hela cell lines, human brain tumor cells Daoy, human neuroma cells D54 and human oral epidermoid cancer cells KBV200 line with strong drug resistance, mouse melanoma cells B16, and highly metastatic Lewis lung cancer cell lines were purchased from American Type Culture Collection of the U.S. These cells were cultured with DMEM and RPMI-1640 culture solutions separately.
The procedure was as follows:
(1) 0.25% trypsin was used to digest cancer cells in a logarithmic growth phase to prepare a single-cell suspension, the concentration of cells was adjusted to 5×10^4/mL, and the adjusted suspension was inoculated into a 96-well culture plate with 100 μl per well;
(2) The culture plate was transferred into a 37° C. incubator with a saturated humidity and 5% of CO2 and cultured for 24 h; the compounds and the intermediates thereof obtained in embodiments 1-7 and the compound as represented by formula (IIIa) or the positive control anti-cancer drug with the concentration of 1-1000 μM/L were added to enable the final concentration to be 0.1-1500 μM/L. Control wells (only added with 200 μl of cell suspension) and drug-free blank control wells (containing the solvent of 0.01% DMSO) were set, each group included 8 wells, and the plate was placed into the 37° C. incubator with saturated humidity and 5% of CO2 for culturing;
(3) The 96-well plate was taken out at 48 h and 72 h after dosing, the original culture medium was carefully removed by suction, 100 μl of serum-free DMEM culture medium and 10 μl of MTT (5 mg/mL) solution were added in each well. The plate was continuously cultured for another 4 h and then the culture was terminated;
(4) The supernatant in the wells was carefully removed by suction, each well was added with 150 μl of DMSO and shaked at room temperature for 10-15 min to fully dissolve crystals.
(5) Colorimetric analysis: the wavelength was selected as 570 nm, the light absorbance (A value) of each well was determined on the microplate reader and the results were recorded; the experiment was repeated for three times;
(6) the experimental results were calculated according to the following formula: relative survival rate=(A value of each experimental group/A value of cell control group)×100%
Calculation of median-effect concentration (IC50, namely the drug concentration at which the inhibition rate is 50%, also known as half inhibitory concentration):
IC50 of the detected component was calculated by using a regression equation.

[2] = test system: p21; test: Western Blotting, increase of p21 level; format: cell-based; settings: liver cancer cells, Lewis lung cancer cells and other cancer cell lines and tumor tissue protein lysates, 48 h treatment, read-out: Effective concentration to increase p21 by 50%
Description: (§1) Antibodies: primary antibodies of VEGFR, EGFR, c-Met, K-Ras, H-Ras, Akt, NF-κB, Cyclin D1, ER-alpha, Dvl-1, Dvl-2, Dvl-3, MMP-9, MMP2, β-catenin, Bcl-2, Bax, p53, p21, E-cadherin and Caspase3 protein, purchased from American Cell Signaling Technology Company and Santa Cruz Technology Company; and H3 acetylation, H4 acetylation and HDAC (HDAC3, HDAC4 and the like) Antibody Sample Kits, purchased from Cell Signaling Technology Company of the U.S.
(§2) (3) polyacrylamide gel electrophoresis (SDS-PAGE): an equal amount of protein lysate sample was used to separate protein, film transfer, and blocking, treated with appropriate primary antibodies and secondary antibodies in sequence, and the film was washed, then the color was developed with ECL kit, and a blot protein band was detected by exposure of an X-ray film; and a Gel-Pro Analyzer was used for quantitative analysis of gray degree, optical density value of the control group and the drug treatment group in various concentration were respectively compared with that of internal reference, the obtained ratios were respectively compared with the control group, and the protein expression level was semi-quantified.

[3] = test system: HDAC3; test: Western Blotting, HDAC3 level; format: cell-based; settings: human liver cancer cells, Lewis lung cancer cells and other cancer cell lines and tumor tissues, read-out: Effective concentration (IC50) for inhibition of HDAC3
Description: as §1, §2

[4] = test system: HDAC3; test: HDAC3 enzyme activity in nuclear extracts of human tumor xenografts of treated mice; settings: first value of the pair HDAC3 and HDAC4, SAHA 25 mg/kg
Description: For the detection of the effect of the drugs on enzyme activity of EZH2 and HDAC of in-vivo tumors, the tumors were separately excised after 6 h of medication, total proteins and nucleoproteins were extracted separately to detect and analyze the activity of the enzyme.
(2) 50 μl of diluted sample solution was added into each reaction well, the plate was sealed with a plate-sealing film and reacted at room temperature for 30 min;
(3) the plate-sealing film was carefully peeled off, the liquid was removed, dried, 150 μl of washing liquid was added into each well, stood for 30 s, then the liquid was removed, repeated twice, and dried;
(4) 2 μl of HDAC enzyme or tumor tissue nuclear extracts was respectively uniformly mixed with 28 μl of diluted sample solution, added into the wells, the plate was sealed with the plate-sealing film and reacted at 37° C. for 60 min;
(5) the plate was washed for three times, wherein the operation was the same as that in (3); and a diluted antibody capture working solution was added into each reaction well according to 50 μl/well and reacted on a shaking bed at room temperature for 60 min;
(6) the plate was washed for four times, wherein the operation was the same as that in (3);
(7) a diluted antibody detection working solution was added into each reaction well according to 50 μl/well and reacted at room temperature for 30 min;
(8) the plate was washed for five times, wherein the operation was the same as that in (3);
a color developing agent was added according to 100 μl/well, and performed dark development for 2-10 min;
(9) 50 μl of stop solution was added into each well for stopping the reaction when the color in the well with a standard product turned blue with medium intensity, the color immediately turned yellow from blue after the addition;
(10) the light absorbance (OD value) of each well was measured in sequence at the wavelength of 450 nm; wherein the measurement should be performed within 15 min after addition of the stop solution; and

[5] = test system: nucleoprotein factor NF-κB (p65)-DNA binding activity; test: NF-κB (p65)-DNA binding activity (EMSA); format: cell-based
Description: The in-vitro experiment of the inhibitory effect against the NF-κB(p65)-DNA binding activity was applied with the chemiluminescent EMSA kit of Pierce Biotechnology Company of the U.S., the experimental method was strictly operated according to the description of the kit and the specific procedure were as follows:
(1) Preparation of EMSA gel
The cells treated by the drugs were extracted by the nucleoprotein extract solution (provided by Beyotime Biotechnology of Institute) to obtain the nucleoprotein extracts, and 10 μg/pipe of the nucleoprotein extracts were respectively used for sample reaction and electrophoresis detection and analysis shown in the following table.
(2) Pre-electrophoresis: the gel was fixed in an electrophoresis tank, which was filled with a 0.5×TBE electrophoresis buffer solution, and electrophoresed under 10V/cm for 90 min. The probe binding reaction was as follows:
The components were added in sequence into the EP pipe according to the above table, uniformly mixed and stood at room temperature for 15 min to eliminate possible non-specific binding of probe and protein. 1 μl of biotin-labeled probe NF-κB was respectively added and stood at room temperature for 20 min.
(4) Film transfer: the process of transferring the nucleoprotein factors and the binding probe on the EMSA gel to the nylon film was electrically transferred under 380 mA in ice bath for 40 min.
(5) Ultraviolet cross-linking: the nylon film was placed under a 254 nm ultraviolet lamp and irradiated for 15 min.
(6) Detection of the biotin-labeled probe by chemiluminescence: the cross-linked nylon film was blocked with the blocking solution, a treated film was subjected to X-ray exposure, developing, and fixation according to the requirements of the kit, and the results were analyzed.

[6] = test system: VEGFR1; test: Western Blotting, VEGFR1 level; format: cell-based; settings: human liver cancer cells, Lewis lung cancer cells and other cancer cell lines and tumor tissues, read-out: Effective concentration (IC50) for inhibition of VEGFR1
Description: as §1, §2

[7] = test system: Akt; test: Western Blotting, Akt level; format: cell-based; settings: human liver cancer cells, Lewis lung cancer cells and other cancer cell lines and tumor tissues, read-out: Effective concentration (IC50) for inhibition of Akt
Description: as §1, §2

[8] = test system: c-Met; test: Western Blotting, c-Met level; format: cell-based; settings: human liver cancer cells, Lewis lung cancer cells and other cancer cell lines and tumor tissues, read-out: Effective concentration (IC50) for inhibition of c-Met
Description: as §1, §2

[9] = A549 cells, EMSA, nuclear protein extracts, 48 h, read-out: Effective concentration for 50% inhibition of binding of nucleoprotein factor NF-kB (p65) and DNA
[10] = MCF7 cells, EMSA, nuclear protein extracts, 48 h, read-out: Effective concentration for 50% inhibition of binding of nucleoprotein factor NF-kB (p65) and DNA
[11] = MDA-MB231 cells, EMSA, nuclear protein extracts, 48 h, read-out: Effective concentration for 50% inhibition of binding of nucleoprotein factor NF-kB (p65) and DNA
[12] = SMMC7721 cells, EMSA, nuclear protein extracts, 48 h, read-out: Effective concentration for 50% inhibition of binding of nucleoprotein factor NF-kB (p65) and DNA
[13] = human liver cancer cells, Lewis lung cancer cells and other cancer cell lines and tumor tissues, read-out: Effective concentration (IC50) for inhibition of NF-κB-DNA binding activity
[14] = Hela cells, EMSA, nuclear protein extracts, 48 h, read-out: Effective concentration for 50% inhibition of binding of nucleoprotein factor NF-kB (p65) and DNA
[15] = PANC-1 cells, EMSA, nuclear protein extracts, 48 h, read-out: Effective concentration for 50% inhibition of binding of nucleoprotein factor NF-kB (p65) and DNA

| Structure (SMILES) | IC50 [1] [µM] | EC50 [2] [µM] | IC50 [3] [µM] | decrease of HDAC3 enzyme activity/inhibition rate ([4]; A549 tumor grown in vivo) [%* and] | decrease of HDAC3 enzyme activity/inhibition rate ([4]; MCF7 tumor grown in vivo) [%* and] | decrease of HDAC3 enzyme activity/inhibition rate ([4]; MDA-MB231 tumor grown in vivo) [%* and] | decrease of HDAC3 enzyme activity/inhibition rate ([4]; SMMC7721 tumor grown in vivo) [%* and] | IC50 [5, 9] [µM] | IC50 [5, 10] [µM] | IC50 [5, 11] [µM] | IC50 [5, 12] [µM] | IC50 [5, 13] [µM] | IC50 [6] [µM] | IC50 [7] [µM] | IC50 [5, 14] [µM] | IC50 [5, 15] [µM] | IC50 [8] [µM] |
| --- | --- | --- | --- | --- | --- | --- | --- | --- | --- | --- | --- | --- | --- | --- | --- | --- | --- |
| CCNC(=O)CC[C@H](N)C(=O)OC [Compound IIa, theanine methyl ester] | 450 | – | – | – | – | – | – | – | – | – | – | – | – | – | – | – | – |
| CCNC(=O)CC[C@@H](NC(=O)c1cc2cc(Cl)ccc2oc1=O)C(=O)OCC [Compound Ic, (R)-2-(6-CI-2-oxo-2H-benzopyran-3-carboxamido)-5-ethylamino-5-oxo-pentanoic acid ethyl ester] | 125 | < 100 | < 65 | 71 | 60 | 63 | 65 | < 125 | < 125 | < 125 | < 125 | < 125 | < 100 | < 100 | – | – | – |
| CCNC(=O)CC[C@@H](NC(=O)c1cc2cc(Br)cc(Br)c2oc1=O)C(=O)OCC [Compound Ih, (R)-2-(6,8-dibromo-2-oxo-2H-benzopyran-3-carboxamido)-5-ethylamino-5-oxo-pentanoic ethyl ester] | 146 | < 100 | < 65 | 57 | 64 | 62 | 60 | < 70 | < 70 | < 70 | < 70 | < 125 | < 100 | < 70 | < 70 | < 70 | < 500 |
| CCNC(=O)CCC(NC(=O)c1cc2cc(F)ccc2oc1=O)C(=O)OCC (stereo in doubt) [Compound Ie, (R)-2-(6-F-2-oxo-2H-benzopyran-3-carboxamido)-5-ethylamino-5-oxo-pentanoic acid ethyl ester] | 230 | < 100 | < 55 | 70 | 65 | 60 | 63 | < 120 | < 100 | < 110 | < 121 | < 100 | < 110 | < 160 | – | – | < 145 |
| CCNC(=O)CC[C@@H](NC(=O)c1cc2cc(Cl)cc(Cl)c2oc1=O)C(=O)OCC [Compound Ig, (R)-2-(6,8-dichloro-2-oxo-2H-benzopyran-3-carboxamido)-5-ethylamino-5-oxo-pentanoic ethyl ester] | 125 | < 70 | < 65 | 61 | 66 | 64 | 62 | < 70 | < 70 | < 70 | < 70 | < 125 | < 100 | < 70 | < 70 | < 70 | < 150 |
| CCNC(=O)CCC(NC(=O)c1cc2ccccc2oc1=O)C(=O)OCC (stereo not shown) [Compound Ib, ethyl 5-ethylamino-5-oxo-2-(2-oxo-2H-benzopyran-3-carboxamido)pentanoate] | 110 | < 120 | < 70 | 65 | – | – | 63 | < 135 | – | – | < 120 | < 130 | < 120 | < 120 | – | – | < 155 |
| CCNC(=O)CC[C@H](N)C(=O)OCC [Compound IIb, theanine ethyl ester] | 500 | – | – | – | – | – | – | – | – | – | – | – | – | – | – | – | – |
